The text below walks through data of patent US5236927A, “Anti-cancer quinazoline derivatives” (National Research Development Corporation, priority 1985, dated 1993).

Data set [1] has as its target T1, Thymidylate synthetase (TS) (Mus musculus, UniProt P07607).
T1 construct: A 50,000 g supernatant was prepared from a TS over-producing (45-fold) L1210 cell line; endogenous in cells; host or cells: L1210 (TS over-producing subline, 45-fold), 50,000 g supernatant
In words: Thymidylate synthetase (TS) inhibition, 3H release assay. In kind it is biochemical. To be noted: for TS IRP (inverse relative potency, I50 test compound/I50 CB3717): relative to CB3717. The method, then:
Each compound was dissolved in 0.15M NaHCO3. Thymidylate synthetase was assayed by a ^3 H release method. A 50,000 g supernatant was prepared from a TS over-producing (45-fold) L1210 cell line that was developed in this Institute. The preparation buffer was 0.05M potassium phosphate/0.01M 2-mercaptoethanol, pH 7.4. […] The reaction mixture contained a total of 25 umoles of phosphate. Incubation time was for 1 hour at 37° C.
The results are tabulated below (Table 5). The I50 was defined as the inhibitor concentration necessary to reduce the activity of TS by 50%.

The subject of data set [2] is L1210 cells. In words: L1210 cell culture growth inhibition. In kind it is cell-based. The following applies: Mus musculus, 48 hours, read-out: L1210 ID50. As for the experimental part: (§1) Cells in the log phase of growth were diluted to about 5×10^4 /ml and duplicate 5ml aliquots were added to 50 ml tissue culture flasks containing the appropriate additions (diluted in RPMI and sterilised by Millipore filtration). Cell counts after 48 hours of incubation were obtained by Coulter counting.

In the next data set the test system is L1210/C15 cells. The data set can be described thus: L1210/C15 cell culture growth inhibition (overproduces TS 45-fold). In kind it is cell-based. The method, then:
Cell counts after 48 hours of incubation were obtained by Coulter counting.

The subject of data set [3] is L1210 cells. In words: Reversal of L1210 toxicity by co-incubation with thymidine. The following applies: compound 50 uM + 10 uM thymidine. In kind it is cell-based. The method, then:
as §1

Data set [4] has as its system de novo thymidylate synthesis in L1210 cells. The data set can be described thus: Incorporation of 3H dUrd into acid-precipitable material in L1210 cells. Format: cell-based. As for the experimental part: L1210 cells were used at a concentration of 10^5 /ml. Incubation at 37° C. was in complete RPMI tissue culture medium plus or minus drugs for the lengths of time indicated on the graphs. After this time ^3 H dUrd was added at a concentration of 2 uCi/ml (about 0.2 uM). Three 1 ml aliquots were removed after 20 minutes, placed on ice and mixed with 1 ml of ice-cold phosphate buffered saline (PBS). Precipitation onto glass-fibre discs was performed by trichloroacetic acid washing followed by PBS. […] This is an indirect measurement of de novo thymidylate synthesis in whole cells. […] These concentrations are 10 times the ID50 values.

For data set [5], the system named is L1210 tumour. In words: Treatment of L1210 tumour-bearing mice. In kind it is in vivo, mouse. The method, then:
(§2) The L1210 tumour is carried routinely in DBA2 mice at the Institute of Cancer Research (L1210/CBRI). For experiments 5×10^4 cells were implanted i.p. into male C57Bl×DBA2 F1 hybrid mice 3 days prior to treatment. […] The control group consisted of 9 mice and treated groups 6 or 7 mice.

A short description of data set [6]: Comparative pharmacokinetics in the mouse (plasma, liver, kidney levels). Format: in vivo. The following applies: for concentration at 3 h / concentration at 6 h: mouse, plasma, ip, read-out: Plasma quinazoline conc.
Protocol: 3 Hours and 6 hours after administration groups of three mice at each dose level were sacrificed by exsanguination via cardiac puncture. Plasma was prepared and the livers and kidneys excised and weighed.
The subject of the next data set is alanine transaminase. In words: Comparative hepatotoxicity in the mouse (plasma alanine transaminase). Format: in vivo. The method, then: […]. Plasma was prepared and the livers and kidneys excised and weighed.
Samples of plasma were also analysed for the enzyme alanine transaminase, an indicator of hepatotoxicity. […]

Data set [7] in a line: Urinary and faecal elimination in the mouse. In kind it is in vivo. To be noted: ip, 100 mg/kg i.p., 0-48 h.
Data set [8] in a line: Toxicity and weight loss in treated L1210 tumour-bearing mice. To be noted: 200 mg/kg, data not included. In kind it is in vivo, mouse. As for the experimental part:
as §2

For data set [9] the following is noted: rat, in vivo; for concentration: iv, 100 mg/kg.
Protocol: (§3) During and after the infusion blood and bile samples were collected. Four hours after the experiment the rats were sacrificed and the urine collected from the bladder and the liver and kidneys removed.
(§4) Samples of plasma were also analysed for alanine transaminase.
Data set [10] concerns L1210 cells. To be noted: grown in vitro; cited from earlier work.
For data set [11], the system named is L1210 cells. The following applies: cited from earlier work.
In data set [12] the test system is L1210 tumour. The following applies: grown in vivo; cited from earlier work.
For data set [13] the following is noted: mouse; cited from earlier work.
The conditions of data set [14]: man, cited from earlier work.
For data set [15] the following is noted: cited from earlier work.
The next data set is described as follows: in vivo. To be noted: rat, iv, 100 mg/kg, Plasma levels.
[16] abbreviates: 100 mg/kg i.p., 3 h post-treatment.
Setting [17] is: 100 mg/kg i.p., 6 h post-treatment.
Where [18] appears, read: 300 mg/kg i.p., 3 h post-treatment.
The mark [19] stands for this setting: 300 mg/kg i.p., 6 h post-treatment.

Read-outs that look alike come from different tables or passages of the source. Where only a bound is given, the exact number is not on record here.

T1 sequence (P07607 whole entry): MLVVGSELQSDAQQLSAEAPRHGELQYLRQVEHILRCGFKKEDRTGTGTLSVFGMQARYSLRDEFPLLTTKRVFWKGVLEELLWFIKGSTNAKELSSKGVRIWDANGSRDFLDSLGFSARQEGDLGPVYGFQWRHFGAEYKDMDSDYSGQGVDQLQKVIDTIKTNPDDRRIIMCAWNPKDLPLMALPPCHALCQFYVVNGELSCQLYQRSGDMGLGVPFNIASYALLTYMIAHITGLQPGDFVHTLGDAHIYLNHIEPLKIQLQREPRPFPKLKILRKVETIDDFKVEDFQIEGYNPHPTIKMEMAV
Protocol for in vivo: as §3, §4

With `CN(Cc1ccc2nc[nH]c(=O)c2c1)c1ccc(C(=O)N[C@@H](CCC(=O)O)C(=O)O)cc1` [CB3824, N-(4-(N-((3,4-dihydro-4-oxo-6-quinazolinyl)methyl)methylamino)benzoyl)-L-glutamic acid], in [1], the “TS IRP (inverse relative potency, I50 test compound/I50 CB3717)” value came out at 53. Also, the IC50 in the data set on L1210 cells [2] came out at 1100 nM.
The like results for `O=C(O)CC[C@H](NC(=O)c1ccc(NCc2ccc3nc[nH]c(=O)c3c2)cc1)C(=O)O` [CB3816, N-(4-(((3,4-dihydro-4-oxo-6-quinazolinyl)methyl)amino)benzoyl)-L-glutamic acid] were, in that order, 1136 and 700 nM.
Consider `CN(Cc1cnc2nc(N)nc(N)c2n1)c1ccc(C(=O)N[C@@H](CCC(=O)O)C(=O)O)cc1` [methotrexate], for which the “resistance of L1210/C15 cells” value with L1210/C15 cells is on record as “not resistant”.
Turning to `C#CCN(Cc1ccc2nc(N)nc(O)c2c1)c1ccc(C(=O)N[C@@H](CCC(=O)O)C(=O)O)cc1` [CB3717, N-(4-(N-((2-amino-4-hydroxy-6-quinazolyl)methyl)prop-2-ynylamino)benzoyl)-L-glutamic acid, reference compound], in the data set with L1210/C15 cells (48 hours, at 100 uM), the “L1210/C15 ID50” value is listed as “no inhibition”. Further, in the data set on L1210 cells [3], the “Cell count at 48 hours as % control” value is reported as 103 % control. In addition, the activity at 50 µM in data set [4] (Mus musculus, L1210, 10 min, 50 uM, by about 10 minutes) is < 20%. The “"cures" (survived >100 days)” value in the data set with L1210 tumour [5] (50 mg/kg i.p. daily ×5) was “about 70%”. For the same compound, in the data set on L1210 tumour [5] (100 mg/kg (the optimal dose), many previous experiments), the “"cures"” value is recorded as 80-100%. The Kidney quinazoline level in [6] (setting [16]) was found to be 13 ± 2 % dose administered; in [6] (setting [17]), 20 ± 8 % dose administered; in [6] (setting [18]), 6 ± 1 % dose administered; in data set [6] (setting [19]), 16 ± 1 % dose administered. Besides, the Liver quinazoline level was found to be 32 ± 4 % dose administered in data set [6] (setting [16]), 11 ± 2 % dose administered in data set [6] (setting [17]), 22 ± 8 % dose administered in data set [6] (setting [18]) and 14 ± 6 % dose administered in [6] (setting [19]). For the same compound, the “detection in plasma, liver and kidneys” value in data set [6] (mice, 3 and 6 hours after i.p. dose, for CB3804 except plasma 3 h at 500 mg/kg) is “readily detected”. The concentration at 3 h in data set [6] (setting [16]) was 134 ± 34 µM; in data set [6] (setting [18]) it was 214 ± 55 µM. The concentration at 6 h is 59 ± 38 µM in [6] (setting [17]) and 362 ± 32 µM in [6] (setting [19]). Further, the “Plasma alanine transaminase level” value in the data set on alanine transaminase (setting [16]) was determined as 225 ± 146 U/L; in the data set on alanine transaminase (setting [17]) it was 273 ± 106 U/L; in the data set on alanine transaminase (setting [18]), 86 ± 61 U/L; in the data set on alanine transaminase (setting [19]), 973 ± 178 U/L. In addition, in the data set with alanine transaminase (mice i.p., normal range 5-25U/l), the “Levels of alanine transaminase (in words)” value is reported as “markedly elevated”. In addition, the dose excreted at 48 h in [7] (faeces, read-out: Faecal excretion of the parent compound) came out at 26 ± 7%; in data set [7] (urine, read-out: Urinary excretion of the parent compound), 15 ± 3%. Further, the weight loss result in data set [8] is recorded as “about 10%”. Further, the mortality in data set [8] (mouse, in vivo, ip, read-out: death (of the animals)) was ~50%. Besides, in data set [9], the “clearance from the plasma (in words)” value is recorded as “cleared less rapidly”. Moreover, the concentration in [9] (0.5 h) stood at 447 µM; in [9] (1 h) it was 878 µM. The “activity against L1210 cells in vitro” value in the data set on L1210 cells [10] was “active against L1210 cells”. Further, the “effect of thymidine on cytotoxic effect” value with L1210 cells [11] was “prevented in both cases by thymidine”. The “activity against L1210 cells in vivo” value in the data set with L1210 tumour [12] was “active against L1210 cells”. The “kidney toxicity: plasma urea” value in [13] was “rise in plasma urea”. In addition, the “liver toxicity: alanine transaminase” value in data set [13] and in data set [14] was “transient rise in alanine transaminase” each time. In data set [14], the hepatic toxicity entry is “apparently non-dose-related (although not life-threatening) hepatic toxicity”. Also, the “responses noted during Phase I/II clinical studies” value in [14] (particularly breast and ovary) is “Several minor and partial responses”. In data set [15], the “solubility at acid pH” value is listed as “poor solubility”. The same compound registered a concentration at 0.5 h in “in vivo” of 412 µM. For the same compound, the concentration at 1 h in “in vivo” worked out at 908 µM.
`Nc1nc2ccc(CNc3ccc(C(=O)N[C@@H](CCC(=O)O)C(=O)O)cc3)cc2c(=O)[nH]1` [CB3705, 5,8-dideazafolic acid]: in the data set on L1210 cells [2], the IC50 was determined as 5000 nM. Further, the entries for the “3H dUrd incorporation” value in data set [4] (10 times the ID50 concentration) and in data set [4] (over 2 hours at the ID50 concentration (5 uM)) were “did not produce rapid suppression” and “did not significantly effect”, respectively.
`CCN(Cc1ccc2nc[nH]c(=O)c2c1)c1ccc(C(=O)N[C@@H](CCC(=O)O)C(=O)O)cc1` [CB3822, N-(4-(N-((3,4-dihydro-4-oxo-6-quinazolinyl)methyl)ethylamino)benzoyl)-L-glutamic acid]: the “TS IRP (inverse relative potency, I50 test compound/I50 CB3717)” value in data set [1] was 26. The IC50 in the data set with L1210 cells [2] was 2600 nM.
Take `C=CCN(Cc1ccc2nc[nH]c(=O)c2c1)c1ccc(C(=O)N[C@@H](CCC(=O)O)C(=O)O)cc1` [CB3826, N-(4-(N-((3,4-dihydro-4-oxo-6-quinazolinyl)methyl)prop-2-enylamino)benzoyl)-L-glutamic acid]: in data set [1], the “TS IRP (inverse relative potency, I50 test compound/I50 CB3717)” value worked out at 56. Moreover, in the data set on L1210 cells [2], the IC50 turned out to be 1700 nM.
Consider `Cc1c(CNc2ccc(C(=O)N[C@@H](CCC(=O)O)C(=O)O)cc2)ccc2nc(N)nc(N)c12` [CB3703, 5CH35,8-dideazaaminopterin], for which, in the data set on L1210/C15 cells, the “resistance of L1210/C15 cells” value is “not resistant”.
Take `C#CCN(Cc1ccc2nc[nH]c(=O)c2c1)c1ccc(C(=O)N[C@@H](CCC(=O)O)C(=O)O)s1` [CB3866, N-(5-(N-((3,4-dihydro-4-oxo-6-quinazolinyl)methyl)prop-2-ynylamino)thien-2-oyl)-L-glutamic acid]: the IC50 in data set [1] (TS from TS over-producing L1210 line, 200 uM (±)-L-5,10-CH2FH4, 1 hour at 37° C, read-out: TS I50) was 1700 nM. In addition, the “TS IRP (inverse relative potency, I50 test compound/I50 CB3717)” value in data set [1] amounted to 85.
